Data on one molecule can be found in patent US20180369203A1, “METHODS OF TREATING CANCER BY ADMINISTERING A MEK INHIBITOR IN COMBINATION WITH A PROTEASOME INHIBITOR” (The Jackson Laboratory, priority 2015, published 2018).

The subject of one experiment is A2058 cells. Put plainly: Experimental melanoma metastasis, i.v. luciferase-expressing A2058 cells in NOD/SCID mice. The format is in vivo. To be noted: n=10 per group. Here is the method:
FIGS. 6A-N show combined MEK and proteasome inhibition exerts potent tumor-suppressive effects. (A) After treatments with 20 nM AZD6244, 100 nM Bortezomib, or both for 24 hr, viable cells were quantitated by CellTiter® Blue (mean±SD, n=6, ANOVA). (B and C) 1×10^6 A2058 cells were s.c. injected into NOD/SCID mice. After 7 days, mice were treated with DMSO, 5 mg/Kg AZD6244, 0.5 mg/Kg Bortezomib, or the combination via i.p. injection three times a week. Tumor volumes were measured using a caliper weekly (mean±SEM, ANOVA). Tumor growth curves were fitted to exponential growth models to derive tumor-doubling time (DT). Kaplan-Meier survival curve was plotted for each group (Log-rank test). (D) Proteins were detected by immunoblotting, 3 tumors per group. (E) Tumor lysates were used to quantitate AOs, 5 tumors per group (mean±SD, n=3, ANOVA). (F) Tumor lysates were used to seed Aβ1-42 peptides, 5 tumors per group (mean±SD, n=3, ANOVA). (G-H) Tumor sections were stained with CR, 5 tumors per group. […] Total CR fluorescence in each field was quantitated using ImageJ and normalized against total nuclei (median, n=50, ANOVA). […] Body weights were monitored weekly (mean±SD, n=10, ANOVA). […]
A2058 cells were s.c. injected into the left flanks of 9-week-old female NOD.CB17-Prkdc/J (NOD/SCID) mice (The Jackson Laboratory). […] Tumor volumes were calculated following the formula 4/3πR^3. […]

Another experiment deals with WM115 cells. The experiment in a line: Lys48 ubiquitin immunostaining of aggregates in melanoma cells. The format is cell-based, human. As to conditions: 20 nM AZD6244, 100 nM Bortezomib, or both, 24 hr. Here is the method: FIGS. 5A-Y show MEK and proteasome inhibition provoke protein aggregation and amyloidogenesis. (A-B) WM115 cells treated with 20 nM AZD6244, 100 nM Bortezomib, or both for 24 hr were stained with Lys48-specific ubiquitin antibodies. Arrowheads mark ubiquitin-positive aggregates. Scale bar: 10 μm. Amounts of aggregates per cell were quantitated using ImageJ (median, n≥100, ANOVA). (C-F) Following transfection with polyQ79 plasmids alone or with both polyQ79 and HSF1^S326D plasmids for one day, HEK293T cells were treated with inhibitors as described in (A-B). Cells were either analyzed for aggregate size or stained with 10 μM ThT. (G) Treated tumor cell lines were stained with 10 μM ThT. Geometric means were used to calculate fold changes in ThT fluorescence intensity and the log 2(FC) values were presented as a heat map. (H) HEK293T cells were transfected with LacZ or polyQ79 plasmid. Following treatments, AOs were quantitated by ELISA using A11 antibodies (mean±SD, n=3, ANOVA). (I) Intrinsic AOs were detected in human tumor cell lines (mean±SD, n=3, ANOVA). […] Amyloids were quantitated by ELISA (mean±SD, n=3, Student's t-test). […] AF formation was monitored by ThT binding (mean±SD, n=3, ANOVA). […] Amyloids were quantitated (mean±SD, n=3, Student's t-test). […] Viable cells were quantitated by CellTiter® blue (mean±SD, n=6, Student's t-test). […] Viable cells were quantitated (mean±SD, n=6, ANOVA). […]

In the case of `CC(C)C[C@H](NC(=O)[C@H](Cc1ccccc1)NC(=O)c1cnccn1)B(O)O` [Bortezomib, bortezomib], the “mice with luminescence detected by in vivo imaging” value with A2058 cells was found to be 40%. In addition, the “ubiquitin-containing aggregates (punctate foci)” value in the experiment with WM115 cells is “bright fluorescent punctate foci emerged”.
